Test results: US20170008888A1 (KYORIN PHARMACEUTICAL CO., LTD., priority 2014, published 2017)
Where two headings read alike, the source gives them in different places.

Assays:
human Th17 cells = experiment: Cytokine response by in vitro-polarized human Th17 cells stimulated with PMA/ionomycin; format: cell-based; conditions: 10 μM compound, PMA/ionomycin 20 h
Protocol: In vitro differentiation of human Th17 cells: Human CD4+ T cells (isolated as described in protocol A) were polarized into Th17 cells as follows: Tissue culture-treated 100 mm plates (Corning, Corning, N.Y.) were coated with 10 μg/ml anti-human CD3 clone OKT3 antibody overnight at 4° C. Polarization was initiated by seeding approximately 2-3 e7 human CD4+ T cells onto the anti-CD3 plates in Polarization media consisting of: RPMI 1640 medium (Lonza, Allendale, N.J.) supplemented with 10% (v/v) charcoal-dextran treated, heat inactivated FBS (Omega Scientific, Tarzana, Calif.), 0.05 mM 2-Mercaptoethanol (Sigma-Aldrich, St. Louis, Mo.), and 1×Pen/Strep Amphotericin B (Lonza), with added recombinant human IL-23 (40 ng/ml) and anti-CD28 clone CD28.2 antibody (2 μg/ml); all recombinant human cytokines and anti-human neutralizing antibodies were purchased from eBioscience (San Diego, Calif.). Cells were incubated in the above Polarization media for 3 days at 37° C. in a humidified atmosphere at 5% CO2. After 3 days, the Polarization media was replaced with Maintenance media, consisting of RPMI 1640/FBS/2-Mercaptoethanol/Pen/Strep Amphotericin B supplemented with recombinant human IL-23 (40 ng/ml) alone, and the cells were re-plated onto regular tissue-culture-treated plates (not anti-CD3 coated). Cells were incubated in the Maintenance media for an additional 3 days at 37° C. in a humidified atmosphere at 5% CO2.
Inhibition of PMA/ionomycin-stimulated cytokine response by in vitro-differentiated human Th17 cells: Human Th17 cells, generated as described above, were seeded at 2e6 cells/ml in RPMI 1640 containing 10% (v/v) charcoal-dextran treated, heat inactivated FBS (Omega Scientific, Tarzana, Calif.), 0.05 mM 2-Mercaptoethanol (Sigma-Aldrich, St. Louis, Mo.), and 1×Pen/Strep Amphotericin B (Lonza, Allendale, N.J.). Cells were pre-treated with test compounds (10 μM) for 1 h at 37° C. in a humidified atmosphere at 5% CO2. Cells were then stimulated with 50 ng/ml phorbol 12-myristate 13-acetate (PMA) (Sigma-Aldrich, St. Louis, Mo.)+1 μg/ml ionomycin (Life Technologies, Grand Island, N.Y.) for 20 h at 37° C. in a humidified atmosphere at 5% CO2. Supernatant was collected and analyzed using Bio-Plex Pro Human Th17 Cytokine 15-Plex Panel (Bio-Rad Laboratories, Hercules, Calif.) as per manufacturer's protocols. Magnetic beads were read on the Bio-Plex MAGPIX multiplex reader instrument using the accompanying xPONENT 4.2 acquisition software (Bio-Rad Laboratories). Data were analyzed via the Bio-Plex Manager software v6.1 (Bio-Rad Laboratories). Cytokine secretion levels from Th17 cells treated with 0.1% DMSO+Stimulation were normalized to 100%.
IL-1β, IL-25, and IL-33 were below the limit of detection under conditions used. The concentrations of the observed analytes from top to bottom, as listed, are as follows: 8899, 567, 174, 99, 10380, 511, 239, 548, 81, 966, 504, and 76223 pg/ml.

[1] = test system: primary asthmatic human bronchial epithelial cells; experiment: IL-17A- or IL-17F-mediated cytokine response by primary asthmatic human bronchial epithelial cells; format: cell-based; conditions: Epithelial cell, 48 h, 48 h
Protocol: The virally immortalized, normal human bronchial epithelial cell line BEAS-2B was purchased from ATCC (Manassas, Va.). Primary bronchial epithelial cells isolated from a patient diagnosed with asthma were obtained from Lonza (Allendale, N.J.). Both cells were maintained in complete Bronchial Epithelial Cell Growth Medium (BEGM) (Lonza). Cells were seeded at 1e5 cells/ml and incubated at 37° C. in a humidified atmosphere at 5% CO2 overnight to adhere. Cells were pre-treated with test compounds (10 μM down by ⅕ in a 3- or 4-point serial dilution series) for 1 h at 37° C. in a humidified atmosphere at 5% CO2. DMSO at a final concentration of 0.1% served as the non-inhibited control. Budesonide (Selleck Chemicals, Houston, Tex.), a clinically approved glucocorticoid steroid for the treatment of asthma, was tested as a positive control at 0.25 μM. Cells were stimulated with 50 ng/ml of either human recombinant IL-17A or IL-17F (eBioscience, San Diego, Calif.), for 48 h. Supernatant was then collected and analyzed for cytokine concentrations using the Bio-Plex Pro Human Cytokine 17-Plex Panel (Bio-Rad Laboratories, Hercules, Calif.) according to the manufacturer's instructions. Magnetic beads were measured on the Bio-Plex MAGPIX multiplex reader instrument using the accompanying xPONENT 4.2 acquisition software (Bio-Rad Laboratories). Data were analyzed via the Bio-Plex Manager software v6.1 (Bio-Rad Laboratories). For the primary asthmatic bronchial epithelial cells, five (+IL-17F) to thirteen (+IL-17A) cytokines were in range of detection under the conditions used. […] Select cytokines were analyzed for comparison using the BEAS-2B cell line.
BLQ: cytokine levels were below limits of quantitation.

What does the source list for `CCOc1cc(C(=O)N2CC[C@@H](N(C)C)C2)ccc1Nc1cc2c(cn1)N(C)C(=O)c1ccccc1N2C` [Compound 115]?
inhibition at 10 µM (human Th17 cells; read-out: Percent inhibition of IFNγ (relative to DMSO control)): 18.4%; inhibition at 10 µM (human Th17 cells; read-out: Percent inhibition of IL-4 (relative to DMSO control)): 1.5%; inhibition at 10 µM (human Th17 cells; read-out: Percent inhibition of IL-6 (relative to DMSO control)): 92.5%; inhibition at 10 µM (human Th17 cells; read-out: Percent inhibition of IL-10 (relative to DMSO control)): 80.1%; inhibition at 10 µM (human Th17 cells; read-out: Percent inhibition of IL-17A (relative to DMSO control)): 68.3%; inhibition at 10 µM (human Th17 cells; read-out: Percent inhibition of IL-17F (relative to DMSO control)): 83.5%; inhibition at 10 µM (human Th17 cells; read-out: Percent inhibition of IL-21 (relative to DMSO control)): -86.1%; inhibition at 10 µM (human Th17 cells; read-out: Percent inhibition of IL-22 (relative to DMSO control)): 75.7%; inhibition at 10 µM (human Th17 cells; read-out: Percent inhibition of IL-23 (relative to DMSO control)): -30.7%; inhibition at 10 µM (human Th17 cells; read-out: Percent inhibition of IL-31 (relative to DMSO control)): 3.4%; inhibition at 10 µM (human Th17 cells; read-out: Percent inhibition of TNFα (relative to DMSO control)): 57.1%; inhibition at 10 µM (human Th17 cells; read-out: Percent inhibition of sCD40L (relative to DMSO control)): 53.7%; EC50 ([1]; +50 ng/ml IL-17A, read-out: EC50 values (μM), G-CSF): 0.66 µM; EC50 ([1]; +50 ng/ml IL-17A, read-out: EC50 values (μM), GM-CSF): 1.39 µM; EC50 ([1]; +50 ng/ml IL-17A, read-out: EC50 values (μM), IFN-γ): > 10 µM; EC50 ([1]; +50 ng/ml IL-17A, read-out: EC50 values (μM), IL-1β): 0.95 µM; EC50 ([1]; +50 ng/ml IL-17A, read-out: EC50 values (μM), IL-2): 5.31 µM; EC50 ([1]; +50 ng/ml IL-17A, read-out: EC50 values (μM), IL-6): 0.16 µM; EC50 ([1]; +50 ng/ml IL-17A, read-out: EC50 values (μM), IL-8): 0.15 µM; EC50 ([1]; +50 ng/ml IL-17A, read-out: EC50 values (μM), MCP-1): 6.1 µM; EC50 ([1]; +50 ng/ml IL-17F, read-out: EC50 values (μM), G-CSF): 0.21 µM; EC50 ([1]; +50 ng/ml IL-17F, read-out: EC50 values (μM), IFN-γ): 0.34 µM; EC50 ([1]; +50 ng/ml IL-17F, read-out: EC50 values (μM), IL-1β): 0.38 µM; EC50 ([1]; +50 ng/ml IL-17F, read-out: EC50 values (μM), IL-6): 0.34 µM; EC50 ([1]; +50 ng/ml IL-17F, read-out: EC50 values (μM), IL-8): 0.28 µM
